Laboratory results reported in patent US8420817B2, “Tricyclic N-heteroaryl-carboxamide derivatives, preparation and therapeutic use thereof” (Sanofi, priority 2007, dated 2013).

melting point | SMILES
203 to 205 °C | CN(C)C1CCn2c1nc1cc(NC(=O)c3cc4cc(C(F)(F)F)ccc4n3Cc3cccc(F)c3)cnc12 (single isomer, unassigned; (-)) [Compound 33, (−)-N-(6-Dimethylamino-7,8-dihydro-6H-pyrrolo[2′,1′:2,3]imidazo[4,5-b]pyridin-3-yl)-5-trifluoromethyl-1-(3-fluorobenzyl)-1H-indole-2-carboxamide]
263 to 264 °C | O=C(Nc1cnc2c(c1)nc1n2CCC1)c1cc2cc(Cl)ccc2n1Cc1cccc(F)c1
223 to 225 °C | O=C(Nc1cnc2c(c1)nc1n2CCC1)c1cc2cc(C(F)(F)F)ccc2n1Cc1cccc(F)c1 [Compound 8, N-(7,8-Dihydro-6H-pyrrolo[2′,1′:2,3]imidazo[4,5-b]pyridin-3-yl)-5-trifluoromethyl-1-(3-fluorobenzyl)-1H-indole-2-carboxamide]
275 to 277 °C | CS(=O)(=O)c1ccc2c(c1)cc(C(=O)Nc1cnc3c(c1)nc1n3CCC1)n2Cc1cccc(F)c1 [Compound 21, N-(7,8-Dihydro-6H-pyrrolo[2′,1′:2,3]imidazo[4,5-b]pyridin-3-yl)-5-methylsulfonyl-1-(3-fluorobenzyl)-1H-indole-2-carboxamide]
282 to 283 °C | CC(=O)NC1CCn2c1nc1cc(NC(=O)c3cc4cc(F)ccc4n3Cc3cccc(F)c3)cnc12 (racemic) [Compound 35, N-(6-Acetylamino-7,8-dihydro-6H-pyrrolo[2′,1′:2,3]imidazo[4,5-b]pyridin-3-yl)-5-fluoro-1-(3-fluorobenzyl)-1H-indole-2-carboxamide]
237 to 238 °C | Cc1ccc2c(c1)cc(C(=O)Nc1cnc3c(c1)nc1n3CCC1)n2Cc1cccc(F)c1
244 to 245 °C | CC(C)(C)c1ccc2cc(C(=O)Nc3cnc4c(c3)nc3n4CCC3)n(Cc3cccc(F)c3)c2c1 [Compound 19, N-(7,8-Dihydro-6H-pyrrolo[2′,1′:2,3]imidazo[4,5-b]pyridin-3-yl)-6-tertbutyl-1-(3-fluorobenzyl)-1H-indole-2-carboxamide]
261 to 262 °C | O=C(Nc1cnc2c(c1)nc1n2CCC1)c1cc2ccc(C(F)(F)F)cc2n1Cc1cccc(F)c1 [Compound 7, N-(7,8-Dihydro-6H-pyrrolo[2′,1′:2,3]imidazo[4,5-b]pyridin-3-yl)-6-trifluoromethyl-1-(3-fluorobenzyl)-1H-indole-2-carboxamide]
272 to 273 °C | O=C(Nc1cnc2c(c1)nc1n2CCC1)c1cc2ccc(C(F)(F)F)nc2n1Cc1cccc(F)c1 [Compound 23, N-(7,8-Dihydro-6H-pyrrolo[2′,1′:2,3]imidazo[4,5-b]pyridin-3-yl)-6-trifluoromethyl-1-(3-fluorobenzyl)-1H-pyrrolo[2,3-b]pyridine-2-carboxamide]
262 to 263 °C | O=C(Nc1cnc2c(c1)nc1n2CCCC1)c1cc2cc(C(F)(F)F)ccc2n1Cc1cccc(F)c1 [Compound 27, N-(6,7,8,9-Tetrahydroimidazo[1,2-a:5,4-b′]dipyridin-3-yl)-5-trifluoromethyl-1-(3-fluorobenzyl)-1H-indole-2-carboxamide]
243 to 244 °C | O=C(Nc1cnc2c(c1)nc1n2CCC1)c1cc2ccccc2n1Cc1cccc(F)c1
265 to 266 °C | O=C(Nc1cnc2c(c1)nc1n2CCC1)c1cc2c(F)cccc2n1Cc1cccc(F)c1
269 to 271 °C | O=C(Nc1cnc2c(c1)nc1n2CCC1O)c1cc2ccc(C(F)(F)F)cc2n1Cc1cccc(F)c1 (single isomer, unassigned; (-)) [Compound 28, (−)-N-(6-Hydroxy-7,8-dihydro-6H-pyrrolo[2′,1′:2,3]imidazo[4,5-b]pyridin-3-yl)-6-trifluoromethyl-1-(3-fluorobenzyl)-1H-indole-2-carboxamide]
212 to 213 °C | CC1(C)CCn2c1nc1cc(NC(=O)c3cc4cc(C(F)(F)F)ccc4n3Cc3cccc(F)c3)cnc12 [Compound 31, N-(6,6-Dimethyl-7,8-dihydro-6H-pyrrolo[2′,1′:2,3]imidazo[4,5-b]pyridin-3-yl)-5-trifluoromethyl-1-(3-fluorobenzyl)-1H-indole-2-carboxamide]
237 to 239 °C | O=C(Nc1cnc2c(c1)nc1n2CCC1)c1cc2cccc(F)c2n1Cc1cccc(F)c1
224 to 226 °C | CCc1ccc2cc(C(=O)Nc3cnc4c(c3)nc3n4CCC3)n(Cc3cccc(F)c3)c2c1
302 to 303 °C | O=C(Nc1cnc2c(c1)nc1n2CCC1)c1cc2c(Cl)cccc2n1Cc1cccc(F)c1
247 to 249 °C | O=C(Nc1cnc2c(c1)nc1n2CCC1)c1cc2cc(C(F)(F)F)cnc2n1Cc1cccc(F)c1 [Compound 24, N-(7,8-Dihydro-6H-pyrrolo[2′,1′:2,3]imidazo[4,5-b]pyridin-3-yl)-5-trifluoromethyl-1-(3-fluorobenzyl)-1H-pyrrolo[2,3-b]pyridine-2-carboxamide]
182 to 183 °C | Cc1ccc2cc(C(=O)Nc3cnc4c(c3)nc3n4CCC3)n(Cc3cccc(F)c3)c2c1
252 to 253 °C | O=C(Nc1cnc2c(c1)nc1n2CCC1)c1cc2ccc(Cl)cc2n1Cc1cccc(F)c1
267 to 268 °C | O=C(Nc1cnc2c(c1)nc1n2CCC1O)c1cc2cc(C(F)(F)F)ccc2n1Cc1cccc(F)c1 (centres unmarked) [Compound 26, N-(6-Hydroxy-7,8-dihydro-6H-pyrrolo[2′,1′:2,3]imidazo[4,5-b]pyridin-3-yl)-5-trifluoromethyl-1-(3-fluorobenzyl)-1H-indole-2-carboxamide]
218 to 220 °C | NC1CCn2c1nc1cc(NC(=O)c3cc4cc(F)ccc4n3Cc3cccc(F)c3)cnc12 (racemic) [Compound 34, N-(6-Amino-7,8-dihydro-6H-pyrrolo[2′,1′:2,3]imidazo[4,5-b]pyridin-3-yl)-5-fluoro-1-(3-fluorobenzyl)-1H-indole-2-carboxamide]
235 to 236 °C | O=C(Nc1cnc2c(c1)nc1n2CCC1)c1cc2ccc(F)cc2n1Cc1cccc(F)c1
288 to 290 °C | O=C(Nc1cnc2c(c1)nc1n2CCC1O)c1cc2cc(F)ccc2n1Cc1cccc(F)c1 (racemic)
234 to 236 °C | CC(C)(C)c1ccc2c(c1)cc(C(=O)Nc1cnc3c(c1)nc1n3CCC1)n2Cc1cccc(F)c1 [Compound 18, N-(7,8-Dihydro-6H-pyrrolo[2′,1′:2,3]imidazo[4,5-b]pyridin-3-yl)-5-tertbutyl-1-(3-fluorobenzyl)-1H-indole-2-carboxamide]
242 to 243 °C | O=C(Nc1cnc2c(c1)nc1n2CCC1)c1cc2cc(F)cnc2n1Cc1cccc(F)c1
303 to 304 °C | Cc1cccc2c1cc(C(=O)Nc1cnc3c(c1)nc1n3CCC1)n2Cc1cccc(F)c1
129 to 130 °C | O=C(Nc1cnc2c(c1)nc1n2CCC1c1ccccc1)c1cc2cc(C(F)(F)F)ccc2n1Cc1cccc(F)c1 (racemic) [Compound 30, N-(6-Phenyl-7,8-dihydro-6H-pyrrolo[2′,1′:2,3]imidazo[4,5-b]pyridin-3-yl)-5-trifluoromethyl-1-(3-fluorobenzyl)-1H-indole-2-carboxamide]

SMILES | melting point
CC(=O)OC1CCn2c1nc1cc(NC(=O)c3cc4cc(F)ccc4n3Cc3cccc(F)c3)cnc12 (racemic) [Compound 2, N-(6-Acetoxy-7,8-dihydro-6H-pyrrolo[2′,1′:2,3]imidazo[4,5-b]pyridin-3-yl)-5-fluoro-1-(3-fluorobenzyl)-1H-indole-2-carboxamide] | 139 to 141 °C
